The source of these data is patent US20260109694A1, “HETEROCYCLIC COMPOUNDS AND USES THEREOF” (Kumquat Biosciences Inc., priority 2023, published 2026).

One test has as its target T1, PTP1B (Homo sapiens, UniProt P18031).
T1 sequence (P18031 1-435): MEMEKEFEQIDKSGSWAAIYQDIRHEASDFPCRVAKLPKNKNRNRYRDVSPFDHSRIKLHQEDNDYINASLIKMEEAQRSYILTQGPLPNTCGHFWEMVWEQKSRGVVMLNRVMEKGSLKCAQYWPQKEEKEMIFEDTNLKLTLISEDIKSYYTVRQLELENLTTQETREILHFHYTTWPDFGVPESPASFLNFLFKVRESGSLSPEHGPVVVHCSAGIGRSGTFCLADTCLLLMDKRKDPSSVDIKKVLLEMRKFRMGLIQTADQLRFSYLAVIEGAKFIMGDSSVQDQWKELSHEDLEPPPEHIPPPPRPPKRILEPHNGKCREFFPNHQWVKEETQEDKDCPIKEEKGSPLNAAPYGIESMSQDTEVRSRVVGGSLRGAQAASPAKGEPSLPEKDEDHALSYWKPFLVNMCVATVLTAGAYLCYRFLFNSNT
Put plainly: Phosphatase activity assay (DiFMUP substrate). As to conditions: value bin printed in column head. The format is biochemical. Here is the method:
(§1) The selectivity and potency of a small molecule PTPN2 inhibitor as provided herein against one or more protein tyrosine phosphatase (PTP) enzymes, and specifically against PTPN2, is assessed in various ways. The one or more PTP enzymes comprise Mycobacterium protein tyrosine phosphatase A (mPTPA), Mycobacterium protein tyrosine phosphatase B (mPTPB), PTPN1 (i.e., PTP1B), PTPN2 (i.e., TC-PTP), PTPN22 (i.e., LYP), SHP-1, SHP-2, FAP-1, Meg2, HePTP, Laforin, VHX, VHR, LMWPTP, Cdc14A, LAR, CD45, PTPRG, a fragment thereof, a variant thereof, and a combination thereof. Selectivity and potency of a small molecule PTPN2 inhibitor is evaluated using a PTP activity inhibition assay. The assay is performed using a buffer comprising 50 mM HEPES buffer pH 7.5, 150 mM NaCl, 0.5 mM EDTA, 1 mM DTT, 0.001% Tween-20.
(§2) The assay is performed using a phosphated substrate, e.g., 10 mM 6,8-Difluoro-4-Methylumbelliferyl Phosphate (DIFMUP) that is stored at −20° C. Alternatively or in addition to, the assay is performed using other phosphated substrate (e.g., fluorescein diphosphate). Each PTP enzyme is diluted in the assay buffer
(§3) The assay can be carried out at room temperature in multiplate format, e.g., using 384 well plates. A small molecule PTPN2 inhibitor dissolved in DMSO at one of 10 concentrations from a serial dilution or DMSO alone for control is added to each well. A mixture of the assay buffer comprising PTP enzyme (e.g., 0.025 ng/ul PTPN2) is added to each well and mixed for approximately 2 minutes. The reaction is initiated by adding DiFMUP diluted in the assay buffer to a final concentration of approximately 45 µM DiFMUP in PTPN2 assay. For each PTP enzyme, DiFMUP is added at the Km (Michaelis constant) of the enzyme that had been independently determined. The phosphatase activity of the PTP enzyme is assessed by monitoring appearance of a fluorescent product (6,8-difluoro-7-hydroxyl-4-coumarin (DiFMU) from DiFMUP) continuously for about 15 to 30 minutes, using the INFINITE M1000Pro plate reader (Tecan) with excitation at 360 nm and emission at 450 nm (cutoff filter at 435 nm) for DiFMU. Each assay is performed at least in duplicate. The rate (e.g., the initial rate) of DiFMU formation is plotted against the concentration of the small molecule PTPN2 inhibitor, and the data is fitted (e.g., using a 4-parameter equation) to determine the inflection point of the fit as the IC50 of the small molecule PTPN2 inhibitor for a specific enzyme. Utilizing this assay, the ability of the compounds in Table 1 to inhibit PTPN2 and PTP1B has been assessed. Table 3 summarizes the IC50 values.

A further test deals with T2, PTPN2 (Homo sapiens, UniProt P17706).
T2 sequence (P17706 1-415): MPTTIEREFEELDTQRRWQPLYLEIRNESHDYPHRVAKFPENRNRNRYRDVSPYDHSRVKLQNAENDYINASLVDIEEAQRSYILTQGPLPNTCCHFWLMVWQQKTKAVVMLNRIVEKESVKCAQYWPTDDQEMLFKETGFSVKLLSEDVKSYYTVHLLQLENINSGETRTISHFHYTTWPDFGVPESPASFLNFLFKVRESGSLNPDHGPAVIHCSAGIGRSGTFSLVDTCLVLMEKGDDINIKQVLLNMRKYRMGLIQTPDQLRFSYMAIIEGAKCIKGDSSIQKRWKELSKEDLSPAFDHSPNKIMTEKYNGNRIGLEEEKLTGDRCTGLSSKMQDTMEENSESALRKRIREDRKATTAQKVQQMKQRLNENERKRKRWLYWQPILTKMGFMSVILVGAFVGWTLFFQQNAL
Put plainly: Phosphatase activity assay (DiFMUP substrate). As to conditions: value bin printed in column head. It counts as biochemical. Here is the method:
as §1, §2, §3

For orientation: IC50 means the midpoint of a concentration-inhibition curve. In the case of `O=C1CN(c2c(O)ccc(C3=CC(CCCC4CC4)NC3)c2F)S(=O)(=O)N1` (stereo not drawn) [Compound 123, 5-(3-(5-(3-cyclopropylpropyl)-2,5-dihydro-1H-pyrrol-3-yl)-2-fluoro-6-hydroxyphenyl)-1,2,5-thiadiazolidin-3-one 1,1-dioxide], the IC50 at PTP1B and at PTPN2 was at most 1000 nM each time.
Turning to `CC(C)(C)CC[C@@H]1C=C(c2ccc(O)c(N3CC(=O)NS3(=O)=O)c2F)CN1` [Compound 110, (R)-5-(3-(5-(3,3-dimethylbutyl)-2,5-dihydro-1H-pyrrol-3-yl)-2-fluoro-6-hydroxyphenyl)-1,2,5-thiadiazolidin-3-one 1,1-dioxide], the IC50 at PTP1B and on PTPN2 was at most 1000 nM throughout.
As to `N#CCCCC1C=C(c2ccc(O)c(N3CC(=O)NS3(=O)=O)c2F)CN1` (stereo not drawn) [Compound 119, 4-(4-(3-(1,1-dioxido-4-oxo-1,2,5-thiadiazolidin-2-yl)-2-fluoro-4-hydroxyphenyl)-2,5-dihydro-1H-pyrrol-2-yl)butanenitrile], the IC50 on PTP1B and on PTPN2 was at most 1000 nM each time.
Turning to `O=C1CN(c2c(O)ccc(C3=CC4CCCN4C3)c2F)S(=O)(=O)N1` (stereo not drawn) [Compound 139, 5-(2-fluoro-6-hydroxy-3-(2,3,5,7a-tetrahydro-1H-pyrrolizin-6-yl)phenyl)-1,2,5-thiadiazolidin-3-one 1,1-dioxide], the IC50 on PTP1B and at PTPN2 was at most 1000 nM each time.
On to `O=C1CN(c2c(O)ccc(C3=CC(C4CCC4)NC3)c2F)S(=O)(=O)N1` (stereo not drawn) [Compound 125, 5-(3-(5-cyclobutyl-2,5-dihydro-1H-pyrrol-3-yl)-2-fluoro-6-hydroxyphenyl)-1,2,5-thiadiazolidin-3-one 1,1-dioxide], for which the IC50 at PTP1B and on PTPN2 was at most 1000 nM throughout.
For the molecule `O=C1CN(c2c(O)ccc(C3=CC(C4CC4)NC3)c2F)S(=O)(=O)N1` (stereo not drawn) [Compound 109, 5-(3-(5-cyclopropyl-2,5-dihydro-1H-pyrrol-3-yl)-2-fluoro-6-hydroxyphenyl)-1,2,5-thiadiazolidin-3-one 1,1-dioxide], the IC50 at PTP1B and on PTPN2 was at most 1000 nM in each case.
Regarding `CC(C)[C@H](N)C(=O)NCC(=O)N1CC(c2ccc(O)c(N3CC(=O)NS3(=O)=O)c2F)=C[C@H]1CCC1CCC1` [Compound 144, (S)-2-amino-N-(2-((R)-2-(2-cyclobutylethyl)-4-(3-(1,1-dioxido-4-oxo-1,2,5-thiadiazolidin-2-yl)-2-fluoro-4-hydroxyphenyl)-2,5-dihydro-1H-pyrrol-1-yl)-2-oxoethyl)-3-methylbutanamide], the IC50 on PTP1B and at PTPN2 was at most 1000 nM in each case.
`CC(C)C(=O)O[C@H](C)OC(=O)N1CC(c2ccc(O)c(N3CC(=O)NS3(=O)=O)c2F)=C[C@H]1CCC1CC1` [Compound 161, (S)-1-(isobutyryloxy)ethyl (R)-2-(2-cyclopropylethyl)-4-(3-(1,1-dioxido-4-oxo-1,2,5-thiadiazolidin-2-yl)-2-fluoro-4-hydroxyphenyl)-2,5-dihydro-1H-pyrrole-1-carboxylate]: the IC50 on PTP1B and at PTPN2 was at most 1000 nM throughout.
As to `CC(C)CC[C@H]1C=C(c2ccc(O)c(N3CC(=O)NS3(=O)=O)c2F)CN1C(=O)O[C@@H](C)OC(=O)C1CCCC1` [Compound 152, (S)-1-((cyclopentanecarbonyl)oxy)ethyl (S)-4-(3-(1,1-dioxido-4-oxo-1,2,5-thiadiazolidin-2-yl)-2-fluoro-4-hydroxyphenyl)-2-isopentyl-2,5-dihydro-1H-pyrrole-1-carboxylate], the IC50 was at most 1000 nM at PTP1B and over 1000 nM on PTPN2.
On to `CC(C)C(=O)OC(OC(=O)N1CC(c2ccc(O)c(N3CC(=O)NS3(=O)=O)c2F)=C[C@H]1CCC1CCC1)C(C)C` (stereo partly drawn) [Compound 150, 1-(isobutyryloxy)-2-methylpropyl (2R)-2-(2-cyclobutylethyl)-4-(3-(1,1-dioxido-4-oxo-1,2,5-thiadiazolidin-2-yl)-2-fluoro-4-hydroxyphenyl)-2,5-dihydro-1H-pyrrole-1-carboxylate], for which the IC50 at PTP1B and on PTPN2 was at most 1000 nM throughout.
As for `CCC[C@@H]1C=C(c2ccc(O)c(N3CC(=O)NS3(=O)=O)c2F)CN1` [Compound 114, (R)-5-(2-fluoro-6-hydroxy-3-(5-propyl-2,5-dihydro-1H-pyrrol-3-yl)phenyl)-1,2,5-thiadiazolidin-3-one 1,1-dioxide], the IC50 at PTP1B and at PTPN2 was at most 1000 nM throughout.
On to `O=C1CN(c2c(O)ccc(C3=CC(CCC(F)(F)F)NC3)c2F)S(=O)(=O)N1` (stereo not drawn) [Compound 133, 5-(2-fluoro-6-hydroxy-3-(5-(3,3,3-trifluoropropyl)-2,5-dihydro-1H-pyrrol-3-yl)phenyl)-1,2,5-thiadiazolidin-3-one 1,1-dioxide], for which the IC50 on PTP1B and at PTPN2 was at most 1000 nM throughout.
Regarding `O=C1CN(c2c(O)cc(C3=CCCNC3)cc2F)S(=O)(=O)N1` [Compound 132, 5-(2-fluoro-6-hydroxy-4-(1,2,5,6-tetrahydropyridin-3-yl)phenyl)-1,2,5-thiadiazolidin-3-one 1,1-dioxide], the IC50 on PTP1B and at PTPN2 was at most 1000 nM throughout.
With `O=C1CN(c2c(O)ccc(C3=CC(CC4CCC4)NC3)c2F)S(=O)(=O)N1` (stereo not drawn) [Compound 126, 5-(3-(5-(cyclobutylmethyl)-2,5-dihydro-1H-pyrrol-3-yl)-2-fluoro-6-hydroxyphenyl)-1,2,5-thiadiazolidin-3-one 1,1-dioxide], the IC50 at PTP1B and at PTPN2 was at most 1000 nM each time.
`CC(OC(=O)[C@H](N)C(C)C)OC(=O)N1CC(c2ccc(O)c(N3CC(=O)NS3(=O)=O)c2F)=C[C@H]1CCC1CCC1` (stereo partly drawn) [Compound 147, 1-((D-valyl)oxy)ethyl (2R)-2-(2-cyclobutylethyl)-4-(3-(1,1-dioxido-4-oxo-1,2,5-thiadiazolidin-2-yl)-2-fluoro-4-hydroxyphenyl)-2,5-dihydro-1H-pyrrole-1-carboxylate]: the IC50 at PTP1B and on PTPN2 was at most 1000 nM throughout.
As for `CC(=O)OC(C)OC(=O)N1CC(c2ccc(O)c(N3CC(=O)NS3(=O)=O)c2F)=C[C@H]1CCC1CCC1` (stereo partly drawn) [Compound 164, 1-acetoxyethyl (2R)-2-(2-cyclobutylethyl)-4-(3-(1,1-dioxido-4-oxo-1,2,5-thiadiazolidin-2-yl)-2-fluoro-4-hydroxyphenyl)-2,5-dihydro-1H-pyrrole-1-carboxylate], the IC50 at PTP1B and at PTPN2 was at most 1000 nM each time.
For `N#CCC1C=C(c2ccc(O)c(N3CC(=O)NS3(=O)=O)c2F)CN1` (stereo not drawn) [Compound 107, 2-(4-(3-(1,1-dioxido-4-oxo-1,2,5-thiadiazolidin-2-yl)-2-fluoro-4-hydroxyphenyl)-2,5-dihydro-1H-pyrrol-2-yl)acetonitrile], the IC50 on PTP1B and at PTPN2 was at most 1000 nM each time.
Regarding `O=C1CN(c2c(O)ccc(CC3CCCNC3)c2F)S(=O)(=O)N1` (stereo not drawn) [Compound 122, 5-(2-fluoro-6-hydroxy-3-(piperidin-3-ylmethyl)phenyl)-1,2,5-thiadiazolidin-3-one 1,1-dioxide], the IC50 at PTP1B and on PTPN2 was at most 1000 nM in each case.
